Laboratory results from patent US20230391742A1, “SMALL MOLECULE COMPOUND AND USE AND COMPOSITION THEREOF” (SOOCHOW UNIVERSITY, priority 2021, published 2023).

Assays:
NAC1 protein dimer = biological target: T1, NAC1 protein dimer (Homo sapiens, UniProt Q96RE7); assay: Dimer formation of NAC1 protein detected by immunoprecipitation and immunoblotting; format: biochemical; conditions: FIG. 1
T1 sequence (Q96RE7 1-527): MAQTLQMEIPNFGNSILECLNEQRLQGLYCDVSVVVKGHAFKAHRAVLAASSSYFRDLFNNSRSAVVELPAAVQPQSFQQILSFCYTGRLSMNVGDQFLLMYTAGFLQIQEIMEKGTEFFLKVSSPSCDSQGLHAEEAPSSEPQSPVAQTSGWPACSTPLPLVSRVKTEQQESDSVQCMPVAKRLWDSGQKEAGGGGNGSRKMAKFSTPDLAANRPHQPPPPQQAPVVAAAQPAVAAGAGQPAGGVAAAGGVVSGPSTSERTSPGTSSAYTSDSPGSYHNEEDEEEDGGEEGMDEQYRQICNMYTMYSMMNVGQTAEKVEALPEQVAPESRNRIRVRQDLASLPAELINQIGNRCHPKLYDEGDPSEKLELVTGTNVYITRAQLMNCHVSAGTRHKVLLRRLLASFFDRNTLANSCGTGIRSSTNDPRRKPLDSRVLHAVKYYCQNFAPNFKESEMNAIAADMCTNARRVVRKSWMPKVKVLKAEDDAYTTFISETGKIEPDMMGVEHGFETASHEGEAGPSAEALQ
Text: For the selected NAI-008 (self-synthesized), the dimer formation of the target NAC1 protein by small molecule compounds was detected by immunoprecipitation technology and immunoblotting.

SKOV3 cells [1] = assay: MTT cell growth assay in SKOV3 cells; format: cell-based, human
Method: (§1) SKOV3 cell line: purchased from ATCC, an ovarian cancer tumor cell line that positively expresses NAC1.
(§2) The culture method of SKOV3 cell line was as follows: the cells were inoculated in DMEM (InVitrogen) medium containing 10% calf serum, and placed in a CO2 incubator with a volume fraction of 5% at 37° C., cultivated for two weeks.
This embodiment used a conventional MTT method. The specific method included following:
SKOV3 cells were plated overnight in 96-well plates at a density of 3000 cells/well. […] After 48 hours, 10 μl of MTT (5 mg/ml) was added to each well, and the supernatant was discarded after incubation at 37° C. for 4 hours. After dissolving the purple crystal with 150 μl of dimethyl sulfoxide, the plates were placed in a microplate reader (Bio-Rad Company) to detect the absorbance at 570 nm.

SKOV3 cells [2] = assay: Clonal colony formation experiment in SKOV3 cells; format: cell-based, human; conditions: NAI-008 20 μM combined with cisplatin or doxorubicin (0-40 μM), SKOV3, FIG. 2B
Method: as §1, §2
In this example, conventional clonal colony formation experiments were used. The specific method included the following:
SKOV3 cells were treated according to the experimental requirements for 24-48 hours, digested with trypsin, and the cell suspension was repeatedly pipetted to make the cells fully dispersed. The percentage of single cells were above 95%, and counted on a hemocytometer. Based on a concentration of 2000 cells per dish, 2 ml of cell suspension was inoculated into the culture dish, so that the cells were evenly dispersed. Culturing in 37° C., 5% CO2 for 7 to 14 days, with fresh medium from time to time. Observation under an inverted microscope. When macroscopic colonies appeared in the petri dish, the culture was terminated, the medium was discarded, and PBS was used to rinse twice. Crystal violet staining for 20 minutes. The results were analyzed after 2-3 washes with PBS.

SKOV3 cells [3] = assay: Immunoblot of cleaved PARP (apoptosis) in SKOV3 cells; format: cell-based, human
Method: The ovarian cancer cell line SKOV3 cells were plated into 24-well plates at a density of 20,000 cells/well, and after 16-24 hours of incubation, NAI-008 was added to a final concentration of 20 μM. After 4 hours, additional cisplatin or doxorubicin was added to a final concentration of 20 μM. After 48 hours, the expression of PARP cleaved by apoptotic protein was detected by immunoblotting.

Structure (SMILES): CC(C)(C)c1ccc(OCC(=O)NCC(=O)c2ccc(OC(=O)c3ccc4c(c3)OCO4)cc2)cc1 [NAI-008]
- formation of NAC1 protein dimer (NAC1 protein dimer): inhibits the formation of NAC1 protein dimer
- toxic effects on cells, single application (SKOV3 cells [1]; NAI-008 alone, SKOV3, FIGS. 2A and 2B): did not cause significant toxic effects on cells
- enhancement of cell growth inhibition by cisplatin and doxorubicin (MTT) (SKOV3 cells [1]; NAI-008 at final concentration 20 uM combined with cisplatin or doxorubicin (0-40 μM), SKOV3, 48 hours, FIG. 2A): significantly enhances the inhibition of cell growth and proliferation by cisplatin and doxorubicin
- enhancement of inhibitory effect of cisplatin on proliferation of SKOV3 (MTT screening) (SKOV3 cells [1]; second-round screening, combination with cisplatin, SKOV3): strongly enhances the inhibitory effect of cisplatin on the proliferation of ovarian cancer cell line SKOV3
- enhancement of cell proliferation inhibition by cisplatin and doxorubicin (colony formation) (SKOV3 cells [2]): significantly enhances the inhibition of cell growth and proliferation by cisplatin and doxorubicin
- expression of apoptotic proteins (cleaved PARP) versus cisplatin or doxorubicin alone (SKOV3 cells [3]; NAI-008 20 μM plus cisplatin or doxorubicin 20 μM, SKOV3, 48 hours, FIG. 2C): significantly higher
- apoptosis, compound alone (SKOV3 cells [3]; NAI-008 alone, SKOV3): did not cause significant apoptosis
